Data taken from patent US6806085B1, “2-deoxyglucose-6-phosphate (2-DOG-6-P) phosphatase DNA sequences as selection marker in plants” (IPK Gatersleben, priority 1997, dated 2004).

Legend:
Nicotiana tabacum cells = details: cited from earlier work
tobacco seedlings = assay: Tobacco seedlings on 0.05% 2-DOG containing MS medium; assay type: in vivo, Nicotiana tabacum Var. Samsun NN; details: four weeks
Source text: Seeds of Nicotiana tabacum Var. Samsun NN were sterilized and placed on 0.05% 2-DOG containing MS medium. A: four weeks old seedlings of an untransformed plant; B: four weeks old seedlings of a plant expressing the DOG^R1 gene under the control of the 35S promoter. In order to detect the resistance of seedlings expressing the DOG^R1 gene seeds of the tobacco plants described in Examples 5 and 6 as well as seeds of untransformed tobacco plants were sterilized and placed on 0.05% 2-DOG containing MS medium.

yeast cells = details: addition of 2-DOG; cited from earlier work
pea calli = assay: Pea calli on 0.075% 2-DOG containing medium; assay type: cell-based, Pisum sativum
Source text: Calli of pea plants Pisum sativum were placed on 0.075% 2-DOG containing B5 medium. A: calllus of untransformed plant on 0.075% 2-DOG; B: callus of a plant expressing the DOG^R1 gene under the control of the 35S promoter on 0.075% 2-DOG. The construct described in Example 10 was transferred to pea plants of Pisum sativum by Agrobacteria-mediated transformation. Calli of transformed and untransformed plants were placed on 0.075% 2-DOG containing medium.

[1] = system: root growth of many plants; details: addition of 2-DOG; cited from earlier work
[2] = system: Picea excelsa (spruce) cells; details: cited from earlier work
potato shoots = assay: Potato shoots on 0.05% 2-DOG containing MS medium; assay type: in vivo, Solanum tuberosum var. Solara; details: five weeks
Source text: Shoots of potato plants Solanum tuberosum var. Solara were placed on 0.05% 2-DOG containing MS medium. A: five weeks old shoot of an untransformed plant; B: five weeks old shoot of a plant expressing the DOG^R1 gene under the control of the 35S promoter. The construct described in Example 3 was transferred to potato plants Solanum tuberosum var. Solara by Agrobacteria-mediated transformation. The regenerated shoots were cultivated on selection-free medium. After six weeks the tips of the shoots were transferred to 0.05% 2-DOG containing MS medium.

potato leaf disks = assay: Toxicity of 2-DOG for plant cells, potato leaf pieces on 2-DOG-containing MS medium; assay type: cell-based, Solanum tuberosum var. Solara; details: MS medium with 0.01 to 0.5% 2-DOG, two weeks
Source text: (§1) FIGS. 2A and 2B Cultivation of tobacco (Nicotiana tabacum Var. Samsun NN, A-D) and potato (Solanum tuberosum var. Solara, E-H) leaf disks on 2-DOG-containing MS medium. A, E: control MS medium without addition of 2-deoxyglucose; B, F: MS medium with 0.05% 2-DOG; C, G:MS medium with 0.1% 2-DOG; D, H: MS medium with 0.5% 2-DOG. For the detection of the toxicity of 2-DOG leaf pieces (about 1 cm^2) of sterile tobacco and potato plants were cultivated for two weeks on Murashige and Skoog medium (Murashige & Skoog (1962) Physiol. Plant. 15, 473), to which 0.01 to 0.5% 2-DOG had been added.

tobacco leaf disks = assay: Toxicity of 2-DOG for plant cells, tobacco leaf pieces on 2-DOG-containing MS medium; assay type: cell-based, Nicotiana tabacum Var. Samsun NN; details: MS medium with 0.01 to 0.5% 2-DOG, two weeks
Source text: as §1

For `O=CC[C@@H](O)[C@H](O)[C@H](O)CO` [2-DOG, 2-deoxyglucose], the “cell growth in tissue culture” value (Nicotiana tabacum cells) is listed as “strongly inhibited”, the seedling survival (tobacco seedlings; seedlings expressing DOG^R1 gene under 35S promoter) is listed as “vital” and the seedling survival (tobacco seedlings; seedlings of untransformed plants) is listed as “died at an early stage of development”. For the same compound, the “respiration and growth of cells” value (yeast cells) was “inhibition of the respiration and the growth of cells”, the “shoot development from callus” value (pea calli; callus of untransformed plants) was “did not develop Shoots” and the “shoot development from callus” value (pea calli; callus transformed with DOG^R1 gene under 35S promoter) was “developed shoots”. The root growth [1] was “inhibits the root growth”, the “cell growth in tissue culture” value [2] was “strongly inhibited” and the shoot growth (potato shoots; shoot expressing DOG^R1 gene under 35S promoter) was “exhibits root and stem growth”. For the same compound, the shoot growth (potato shoots; shoot of untransformed plant) was “has not grown”, the “effect on leaf disks” value (potato leaf disks) was “caused the leaf disks to die” and the “effect on leaf disks” value (tobacco leaf disks) was “caused the leaf disks to die”.
